Test results reported in patent publication US8435576B2, “Use of cocoa polyphenols for treating a prostate hyperplasia, a specific cocoa extract and applications” (Barry Callebaut AG, priority 2005, dated 2013).

Tests used:
Assay type in all cases: in vivo, Wistar rats
[1] = system: cognitive performances after heat stroke; assay: Morris water labyrinth test after heat stroke
Experimental: (§1) After each daily administration of the product, the rats have free access to standard food granules.
(§2) On the 16th day, after fasting over night, the conscious rats of the various groups, with the exception of those of the vehicle group, are exposed to a heat stroke by placing them in a temperature-controlled chamber at 40° C. with a relative humidity of 50% for 120 minutes. The rats expressed their normal heat-regulating behavior. Immediately after the heat stroke, the rats with a rectal temperature of between 41.5° C. and 42° C. are included in the study. The rats returned to their cage at 22° C.
The Morris water labyrinth (1984) makes it possible to test the capacity for spatial orientation and the processes of learning and memorization. On the 20th and 21st days (D20 and D21), the rats are tested in the water labyrinth device to evaluate the spatial learning performances and their long-term memory. The experimental procedure consists in training rats, on the 20th day, to find a hidden platform (10 mm below the surface of the water) at a fixed point in the water tank (150 cm in diameter) in a series of five tests starting from the same starting point.
During the first test, the platform is placed against the wall of the tank. During the second test, the platform is placed 5 cm from the wall of the tank to allow the rats to find the platform easily. During the following three tests, the platform is placed 10 cm from the wall of the tank. Each test is followed by a 30-second rest period on the platform.
On the 21st day, the platform is placed at a distance from the wall of the tank in the same place as during the session on the 20th day and the long-term memory of the rats is tested in a single test.
The variable recorded in the water tank is the latency time required to get out of the water and reach the platform serving as a refuge arranged in the basin.

[2] = Body weight during 14-day oral treatment before heat stroke
Experimental: Eight male rats of Wistar/Han IGS strain (Charles River Laboratories, 69-St-Germain sur l'Arbresle—France) weighing 300 to 320 g are used. On receipt, the rats are housed, four to a cage, in 48×27×20 cm polycarbonate cages (U.A.R., 91-Epinay-Sur-Orge, France) in a controlled environment (50±5% humidity; temperature 22±1° C.; lighting from 20:00 h to 08:00 h, i.e. an inverted lightness/darkness cycle: 12 h/12 h).
The rats are weighed each day for the fourteen days of the treatment in order to determine their body weight change.

[3] = system: cognitive performances after heat stroke; assay: Light extinction test after heat stroke; settings: day 18, after heat stroke
Experimental: as §1, §2
Three days after exposure to the heat stroke, on day 18 (D18), the rats are tested for the preventive antioxidant effects of the two CPEs on the learning performances, by using the light extinction test. The experimental device consists of a brightly lit cage (50×40×37 cm). The level of lighting in the test cage is 1200 lux.
During the test session, the rats are placed individually in the cage for 20 minutes to learn how to control the light environment.

[4] = system: leukocyte free radicals; assay: Free radicals in the blood after heat stroke (pholasine chemiluminescence); settings: after heat stroke 40° C., 120 min; 14 days oral CPE1 22.9, CPE2 24.3, vitamin E 200 mg/kg/day
Experimental: as §1, §2
On the 16th day, 500 μl of blood samples were collected from the tail vein of 12 rats of each group, into tubes containing heparin to check the increase in free radicals after exposure to the heat stroke. On the basis of the chemiluminescence of pholasine, a photo-protein from the marine mollusc Pholas dactylus, the production of leukocyte free radicals was measured using a kit (Knight Scientific, Cell Activation Test Kits for Whole Blood with Adjuvant-K) by activation of the NADPH oxydase complex in diluted blood (In CytoTox laboratory, Nancy, France).

Q: Which “Latency for reaching the platform (Mean ± SEM)” value (“Latency … (Mean ± SEM)” below) ([1]; Day 20, Test 1) does the source give for `Cc1c(C)c2c(c(C)c1O)CC[C@@](C)(CCC[C@H](C)CCC[C@H](C)CCCC(C)C)O2` [Vitamin E, α-tocopherol] here?
A: The value was 51.75 ± 6.45 s.

Q: What about the “Latency … (Mean ± SEM)” value ([1]; Day 20, Test 2) of the same compound?
A: Its value is 25.38 ± 4.94 s.

Q: And the “Latency … (Mean ± SEM)” value ([1]; Day 20, Test 3)?
A: The value was 26.44 ± 5.20 s.

Q: And the “Latency … (Mean ± SEM)” value ([1]; Day 20, Test 4)?
A: The value was 17.75 ± 2.44 s.

Q: And the “Latency … (Mean ± SEM)” value ([1]; Day 20, Test 5)?
A: The value was 13.56 ± 1.37 s.

Q: What about the “Latency … (Mean ± SEM)” value ([1]; Day 21, Test 6) of the same compound?
A: Its value is 14.69 ± 2.22 s.

Q: And the “Body weight” value ([2]; Day 1, oral daily CPE1 22.9, CPE2 24.3, vitamin E 200 mg/kg)?
A: The value was 320.9 ± 15.4 g.

Q: And the “Body weight” value ([2]; Day 3)?
A: The value was 328.9 ± 15.8 g.

Q: What about the “Body weight” value ([2]; Day 4) of the same compound?
A: The value was 330.6 ± 15.7 g.

Q: What about the “Body weight” value ([2]; Day 5) of the same compound?
A: The value was 333.9 ± 16.5 g.

Q: And the “Body weight” value ([2]; Day 6)?
A: The value was 336.6 ± 15.9 g.

Q: And the “Body weight” value ([2]; Day 7)?
A: Its value is 339.4 ± 17.3 g.

Q: And the “Body weight” value ([2]; Day 8)?
A: The value was 342.1 ± 17.2 g.

Q: And the “Body weight” value ([2]; Day 11)?
A: The value was 351.6 ± 18.0 g.

Q: And the “Body weight” value ([2]; Day 12)?
A: Its value is 354.6 ± 18.8 g.

Q: And the “Discrimination of the levers” value [3]?
A: The value was “pressed the active lever more than the inactive lever”.

Q: What about the “Number of active lever presses (ALP) (mean ± SEM)” value [3] of the same compound?
A: Its value is 27.28 ± 3.54.

Q: And the “Number of inactive lever presses (ILP) (mean ± SEM)” value [3]?
A: Its value is 17.60 ± 2.47.

Q: And the “Total number of lever presses (Mean ± SEM)” value ([3]; n = 16/group)?
A: Its value is 42.38 ± 5.76.

Q: What about the “Free radical content in the plasma on the 16th day (Mean ± SEM)” value [4] of the same compound?
A: Its value is 311.15 ± 20.56 mV.
